# Measurements: patent US20120122981A1, “Biomarkers Related to Insulin Resistance and Methods using the Same” (priority 2009, published 2012)
# What was measured:
# [1] = pre-diabetic patients, DPP; cited from earlier work
# [2] = Predicted and actual Rd before and after treatment with the insulin sensitizer muraglitozar; type: in vivo, human; conditions: 16 subjects, pre- vs post-treatment, plasma biomarkers 1-25
# Experimental: C-Mur1, baseline prior to muraglitazar treatment; D-Mur2, following treatment with muraglitazar, a peroxisome proliferator-activated receptor agonist and an insulin sensitizer drug. […] Biomarkers 1-25 listed in Table 4 were measured in plasma samples collected from 16 subjects that were taking the insulin sensitizer muraglitozar. The samples were collected pre-(C-Mur—1) and post-treatment (D-Mur—2) with muraglitozar.
smiles,measurement,setting,value
CN(C)C(=N)N=C(N)N [metformin],reduction of the rate of progression to diabetes,[1],38%
COc1ccc(OC(=O)N(CC(=O)O)Cc2ccc(OCCc3nc(-c4ccccc4)oc3C)cc2)cc1 [muraglitozar],"change in predicted Rd with treatment, in agreement with actual Rd by HI clamp",[2],increased
